The record followed here is ChEMBL document CHEMBL3132762, “The effect of a thieno[2,3-b]pyridine PLC- inhibitor on the proliferation, morphology, migration and cell cycle of breast cancer cells” (Medchemcomm, 2014).

pIC50: −log10 of the molar value. Activity calls are given as the source filed them. The rule behind the calls is not given here.

The subject of data set [1] is MDA-MB-468. The data set can be described thus: Cell cycle arrest in human MDA-MB-468 cells assessed as cell shifting from dominant G0/G1 phases to G2/M phases at 1 uM after 16 to 24 hrs by flow cytometry. The data set is classed as functional, cell-based. For orientation: A flow cytometer gives signals particle by particle.
In data set [2] the test system is MDA-MB-231. Description: Cell cycle arrest in human MDA-MB-231 cells assessed as cell accumulation at S phase at 1 uM after 16 to 24 hrs by flow cytometry. It counts as functional, cell-based.
Data set [3] in a line: Inhibition of ER-positive human TamC3 cell proliferation assessed as [3H]thymidine incorporation into DNA helix after 3 days by betaplate counting analysis. The data set is classed as functional, cell-based.
Data set [4] can be described thus: Inhibition of ER-positive human TamR7 cell proliferation assessed as [3H]thymidine incorporation into DNA helix after 3 days by betaplate counting analysis. It counts as functional, cell-based. A general note: Uptake of a labelled nucleoside into DNA is a usual measure of proliferation.
The test system of data set [5] is MDA-MB-436. Description: Inhibition of oestrogen, progesterone and HER2/neu receptor triple negative human MDA-MB-436 cell proliferation assessed as [3H]thymidine incorporation into DNA helix after 3 days by betaplate counting analysis. The data set is classed as functional.
Data set [6] deals with MDA-MB-231. The data set can be described thus: Inhibition of red fluorescent mKATE2 labelled human MDA-MB-231 cell migration assessed as displacement of wound edges at 1 uM after 24 hrs by wound healing assay. The data set is classed as functional. To be noted: MDA-MB-231, 24 h.
For data set [7], the system named is MDA-MB-435. Description: Inhibition of oestrogen, progesterone and HER2/neu receptor triple negative human MDA-MB-435 cell proliferation assessed as [3H]thymidine incorporation into DNA helix after 3 days by betaplate counting analysis. The data set is classed as functional, cell-based.
Data set [8] relates to MDA-MB-453. The data set can be described thus: Inhibition of oestrogen, progesterone and HER2/neu receptor triple negative human MDA-MB-453 cell proliferation assessed as [3H]thymidine incorporation into DNA helix after 3 days by betaplate counting analysis. It counts as functional, cell-based.
Data set [9] deals with MCF7. The data set can be described thus: Inhibition of ER-positive human MCF7 cell proliferation assessed as [3H]thymidine incorporation into DNA helix after 3 days by betaplate counting analysis. It counts as functional, cell-based.
Data set [10] deals with MDA-MB-231. The data set can be described thus: Reduction in red fluorescent mKATE2 labelled human MDA-MB-231 cell number at 1 uM after 24 hrs by fluorescent microscopic analysis. To be noted: mda-mb-231, 24 h. It counts as ADME, cell-based.
For data set [11], the system named is MDA-MB-231. Description: Inhibition of oestrogen, progesterone and HER2/neu receptor triple negative human MDA-MB-231 cell proliferation assessed as [3H]thymidine incorporation into DNA helix after 3 days by betaplate counting analysis. The data set is classed as functional, cell-based.
Data set [12] has as its system BT-20. The data set can be described thus: Inhibition of oestrogen, progesterone and HER2/neu receptor triple negative human BT20 cell proliferation assessed as [3H]thymidine incorporation into DNA helix after 3 days by betaplate counting analysis. It counts as functional, cell-based.
A short description of data set [13]: Inhibition of ER-positive human KPL1 cell proliferation assessed as [3H]thymidine incorporation into DNA helix after 3 days by betaplate counting analysis. The data set is classed as functional, cell-based. To be noted: KPL-1.
For data set [14], the system named is MDA-MB-468. The data set can be described thus: Inhibition of oestrogen, progesterone and HER2/neu receptor triple negative human MDA-MB-468 cell proliferation assessed as [3H]thymidine incorporation into DNA helix after 3 days by betaplate counting analysis. It counts as functional, cell-based.
The test system of data set [15] is T47D. The data set can be described thus: Cell cycle arrest in human T47D cells assessed as cell accumulation at S phase at 1 uM after 16 to 24 hrs by flow cytometry. It counts as functional, cell-based.
The nature of data set [16]: Inhibition of ER-positive human TamR6 cell proliferation assessed as [3H]thymidine incorporation into DNA helix after 3 days by betaplate counting analysis. It counts as functional, cell-based.
For data set [17], the system named is MCF7. The data set can be described thus: Cell cycle arrest in human MCF7 cells assessed as cell accumulation at S phase at 1 uM after 16 to 24 hrs by flow cytometry. It counts as functional, cell-based.
The test system of data set [18] is T47D. Description: Cell cycle arrest in human T47D cells assessed as cell shifting from dominant G0/G1 phases to G2/M phases at 1 uM after 16 to 24 hrs by flow cytometry. The data set is classed as functional, cell-based.
Data set [19] deals with MDA-MB-468. Description: Cell cycle arrest in human MDA-MB-468 cells assessed as cell accumulation at S phase at 1 uM after 16 to 24 hrs by flow cytometry. It counts as functional, cell-based.
For data set [20], the system named is MDA-MB-231. The data set can be described thus: Cell cycle arrest in human MDA-MB-231 cells assessed as cell shifting from dominant G0/G1 phases to G2/M phases at 1 uM after 16 to 24 hrs by flow cytometry. It counts as functional, cell-based.
In data set [21] the test system is MDA-MB-231. The data set can be described thus: Induction of morphological changes in red fluorescent labelled human MDA-MB-231 cells assessed as rounded-up cells after 16 hrs by microscopic analysis. It counts as functional, cell-based.
Data set [22] relates to HBL-100. The data set can be described thus: Inhibition of oestrogen, progesterone and HER2/neu receptor triple negative human HBL100 cell proliferation assessed as [3H]thymidine incorporation into DNA helix after 3 days by betaplate counting analysis. The data set is classed as functional, cell-based.
The subject of data set [23] is SK-BR-3. The data set can be described thus: Inhibition of HER2-overexpressing human SKBR3 cell proliferation assessed as [3H]thymidine incorporation into DNA helix after 3 days by betaplate counting analysis. The data set is classed as functional, cell-based.
Data set [24] can be described thus: Inhibition of ER-positive human TamR3 cell proliferation assessed as [3H]thymidine incorporation into DNA helix after 3 days by betaplate counting analysis. It counts as functional, cell-based.
The subject of data set [25] is MCF7. The data set can be described thus: Cell cycle arrest in human MCF7 cells assessed as cell shifting from dominant G0/G1 phases to G2/M phases at 1 uM after 16 to 24 hrs by flow cytometry. It counts as functional, cell-based.
A short description of data set [26]: Inhibition of ER-positive human TamC6 cell proliferation assessed as [3H]thymidine incorporation into DNA helix after 3 days by betaplate counting analysis. It counts as functional, cell-based.
Data set [27] deals with T47D. The data set can be described thus: Inhibition of ER-positive human T47D cell proliferation assessed as [3H]thymidine incorporation into DNA helix after 3 days by betaplate counting analysis. It counts as functional, cell-based.
Data set [28] has as its system MDA-MB-231. Description: Growth inhibition of human MDA-MB-231 cells after 3 days by DAPI staining. The data set is classed as functional. To be noted: MDA-MB-231, 72 h.
Data set [29] relates to MDA-MB-231. Description: Induction of morphological changes in red fluorescent labelled human MDA-MB-231 cells assessed as rounded-up cells at 6.25 to 1000 nM after 16 hrs by microscopic analysis. It counts as functional, cell-based.

As to `Nc1c(C(=O)Nc2cccc(Cl)c2)sc2nc3c(cc12)C(=O)CCC3`, the outcome in data set [1], in data set [18], in [20], in data set [21] and in data set [25] was Active. Moreover, the result in [2], in data set [15], in data set [17] and in data set [19] was inactive. The pIC50 in [3] was 6.91; in data set [4] it was 6.81; in [5], 6.80; in data set [7], 7.11; in [8], 6.73; in data set [9] it was 6.90. Besides, the negative logarithm of the IC50 (pIC50) in data set [11] was 6.45; in [12], 6.71; in data set [13], 6.97; in [14], 6.79; in [16], 6.98; in [22], 6.58. In addition, the negative logarithm of the IC50 (pIC50) in [23] was 6.86; in data set [24], 6.92; in data set [26], 6.99; in [27] it was 6.24. The inhibition at 1 µM in data set [6] was 50%. Further, in data set [10], the Activity entry is recorded as “Toxic”.

As for `CC(=O)Nc1cccc(-n2c(=O)n(C3CC3)c(=O)c3c(Nc4ccc(I)cc4F)n(C)c(=O)c(C)c32)c1` [TRAMETINIB], the 50% growth inhibitory concentration (GI50) in data set [28] amounted to 0.025 µM. Further, the outcome in data set [29] was inactive.

The term pIC50 denotes −log10 of the IC50, conventionally taken in molar units. As a reminder, the inhibition is how much of the control response was suppressed. Usually GI50 stands for the concentration giving 50% growth inhibition. A higher GI50 goes with lower sensitivity of the cells.
